Consider one compound from article PMC10885983 (Antibiotics, 2024).

≈ marks a conversion by molar mass, not a printed value.

For data set [1], the system named is MRSA. The conditions noted are these: cited from earlier work.
In data set [2] the test system is staphylococcal isolates. Particulars: most staphylococcal isolates; no reference given; cited from earlier work.
A short description of data set [3]: Long-term storage stability in plasma at −80 °C. In kind it is in vitro ADME, rat. Particulars: after 15, 30, 60 and 90 d. The protocol: (§1) The mean recovery was determined at low, medium and high concentrations from five replicates. The long-term storage stability at −80 °C was determined after 15, 30, 60 and 90 d. Bench-top stability testing was also conducted. Samples were spiked in blank plasma and extracted, then analyzed in three replications at 25 °C for 0, 1, 2, 4, 6 and 8 h. The freeze–thaw cycles were stabilized. Rhodomyrtone was spiked in blank plasma, then stored in a freezer (−20 °C) and thawed every 24 h at room temperature (25 °C) for three cycles prior to extraction.

The subject of data set [4] is Bacillus cereus. On the set-up: method as in PMID 34067029. The conditions noted are these: cited from earlier work.
Data set [5] concerns Staphylococcus aureus ATCC 29213. On the set-up: method as in PMID 23019189, PMID 34067029. The conditions noted are these: cited from earlier work.
Data set [6] can be described thus: Freeze–thaw stability in plasma. The format is in vitro ADME, rat. The conditions noted are these: n = 5. Here is the method: as §1
Data set [7] has as its system Streptococcus mutans. The arrangement: method as in PMID 19303274. Particulars: cited from earlier work.

`CC(C)CC(=O)c1c(O)cc2c(c1O)[C@@H](CC(C)C)C1=C(O2)C(C)(C)C(=O)C(C)(C)C1=O` [rhodomyrtone, Rhodomyrtone]: the MBCs in data set [1] is 0.03 to 1.00 µg/mL. Moreover, the MIC in data set [2] was 0.5 to 1 µg/mL; in data set [4], 0.39 µg/mL (≈ 0.881 µM); in data set [5], 0.5 µg/mL (≈ 1.13 µM); in data set [7] it was 0.19 µg/mL (≈ 0.429 µM). In addition, the “Long-term stability, accuracy” value in data set [3] is reported as 94–114%. In addition, the “Freeze–thaw stability, Accuracy (%)” value in data set [6] (Day 0, 0.1 µg/mL) is given as 110.31%; in data set [6] (Day 0, 100 µg/mL), 103.71%; in data set [6] (Day 3 (three cycles −20 °C / 25 °C), 0.1 µg/mL), 105.93%; in data set [6] (Day 3 (three cycles −20 °C / 25 °C), 100 µg/mL) it was 108.10%.
